Test results as given in ChEMBL document CHEMBL1152560, “Substituted 2-arylbenzothiazoles as kinase inhibitors: hit-to-lead optimization” (Bioorg Med Chem, 2009).

Columns and labels:
[1] = target: Fibroblast growth factor receptor 1 (Homo sapiens) (UniProt P11362); experiment: Residual activity of wild type FGF-R1 at 1 uM by microplate scintillation counting
[2] = target: Leukocyte tyrosine kinase receptor (Homo sapiens) (UniProt P29376); experiment: Residual activity of LTK at 1 uM by microplate scintillation counting
[3] = target: Misshapen-like kinase 1 (Homo sapiens) (UniProt Q8N4C8); experiment: Residual activity of MINK1 at 1 uM by microplate scintillation counting
[4] = target: T1, Serine/threonine-protein kinase NLK (Homo sapiens) (UniProt Q9UBE8); experiment: Residual activity of NLK at 1 uM by microplate scintillation counting
T1 sequence (whole entry): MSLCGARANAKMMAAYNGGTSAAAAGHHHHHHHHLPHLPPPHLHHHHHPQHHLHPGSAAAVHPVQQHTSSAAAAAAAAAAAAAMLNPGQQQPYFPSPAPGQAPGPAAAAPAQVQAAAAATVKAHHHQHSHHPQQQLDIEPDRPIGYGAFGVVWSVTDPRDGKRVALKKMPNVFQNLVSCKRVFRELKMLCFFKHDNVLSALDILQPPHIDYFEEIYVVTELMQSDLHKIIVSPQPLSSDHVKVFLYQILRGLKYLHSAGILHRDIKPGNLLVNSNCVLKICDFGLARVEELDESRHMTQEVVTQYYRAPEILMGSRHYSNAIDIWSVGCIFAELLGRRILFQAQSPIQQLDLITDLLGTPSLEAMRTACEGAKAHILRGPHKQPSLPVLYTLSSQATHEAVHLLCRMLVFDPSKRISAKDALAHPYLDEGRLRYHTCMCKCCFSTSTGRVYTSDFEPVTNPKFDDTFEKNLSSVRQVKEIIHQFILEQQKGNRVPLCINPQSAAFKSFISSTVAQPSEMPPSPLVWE

[5] = target: T2, Serine/threonine-protein kinase TBK1 (Homo sapiens) (UniProt Q9UHD2); experiment: Residual activity of TBK1 at 1 uM by microplate scintillation counting
T2 sequence (whole entry): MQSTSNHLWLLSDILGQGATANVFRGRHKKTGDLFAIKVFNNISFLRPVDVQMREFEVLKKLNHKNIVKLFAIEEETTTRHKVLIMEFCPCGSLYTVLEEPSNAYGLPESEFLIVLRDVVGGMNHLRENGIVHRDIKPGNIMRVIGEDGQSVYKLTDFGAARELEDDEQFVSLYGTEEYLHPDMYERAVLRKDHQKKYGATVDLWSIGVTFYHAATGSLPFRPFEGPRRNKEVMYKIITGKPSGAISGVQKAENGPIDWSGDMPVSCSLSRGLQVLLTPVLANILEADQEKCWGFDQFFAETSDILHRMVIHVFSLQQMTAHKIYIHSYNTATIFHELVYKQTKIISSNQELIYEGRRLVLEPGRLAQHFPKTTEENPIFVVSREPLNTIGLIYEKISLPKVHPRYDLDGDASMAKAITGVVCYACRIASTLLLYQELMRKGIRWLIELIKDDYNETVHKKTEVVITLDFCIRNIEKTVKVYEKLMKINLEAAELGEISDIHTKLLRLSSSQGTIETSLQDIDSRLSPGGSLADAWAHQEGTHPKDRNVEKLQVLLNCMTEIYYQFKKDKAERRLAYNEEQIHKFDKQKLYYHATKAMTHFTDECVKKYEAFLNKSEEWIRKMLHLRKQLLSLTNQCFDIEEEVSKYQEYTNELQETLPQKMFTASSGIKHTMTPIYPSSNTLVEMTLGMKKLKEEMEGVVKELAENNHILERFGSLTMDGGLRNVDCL

[6] = target: Fibroblast growth factor receptor 1 (Homo sapiens) (UniProt P11362); experiment: Residual activity of wild type FGF-R1 at 10 uM by microplate scintillation counting
[7] = target: Fibroblast growth factor receptor 4 (Homo sapiens) (UniProt P22455); experiment: Residual activity of FGFR4 at 10 uM by microplate scintillation counting
Sequence of Fibroblast growth factor receptor 4 (Homo sapiens) (P22455 22-802 limits assumed): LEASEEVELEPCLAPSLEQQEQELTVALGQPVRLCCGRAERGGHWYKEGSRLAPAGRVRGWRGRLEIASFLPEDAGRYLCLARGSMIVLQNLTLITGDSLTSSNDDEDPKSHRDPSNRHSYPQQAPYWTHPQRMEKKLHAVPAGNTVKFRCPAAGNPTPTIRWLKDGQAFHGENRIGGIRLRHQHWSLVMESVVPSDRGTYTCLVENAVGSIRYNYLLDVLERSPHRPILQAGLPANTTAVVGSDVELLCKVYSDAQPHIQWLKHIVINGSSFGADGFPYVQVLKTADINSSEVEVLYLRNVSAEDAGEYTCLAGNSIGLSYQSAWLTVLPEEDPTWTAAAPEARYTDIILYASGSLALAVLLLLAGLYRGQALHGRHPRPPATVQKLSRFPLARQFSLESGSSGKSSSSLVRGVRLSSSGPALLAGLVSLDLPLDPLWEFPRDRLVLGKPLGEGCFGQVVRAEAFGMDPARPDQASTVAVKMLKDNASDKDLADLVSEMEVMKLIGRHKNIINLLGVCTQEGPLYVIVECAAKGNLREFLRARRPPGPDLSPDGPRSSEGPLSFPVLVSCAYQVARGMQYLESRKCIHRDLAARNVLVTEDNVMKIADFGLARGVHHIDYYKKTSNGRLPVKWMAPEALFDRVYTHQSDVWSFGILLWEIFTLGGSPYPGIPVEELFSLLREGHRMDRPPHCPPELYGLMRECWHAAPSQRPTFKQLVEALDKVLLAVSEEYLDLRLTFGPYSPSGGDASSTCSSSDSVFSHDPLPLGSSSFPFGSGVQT

[8] = target: ALK tyrosine kinase receptor (Homo sapiens) (UniProt Q9UM73); experiment: Residual activity of ALK at 1 uM by microplate scintillation counting
Sequence of ALK tyrosine kinase receptor (Homo sapiens) (Q9UM73 19-1620 limits assumed): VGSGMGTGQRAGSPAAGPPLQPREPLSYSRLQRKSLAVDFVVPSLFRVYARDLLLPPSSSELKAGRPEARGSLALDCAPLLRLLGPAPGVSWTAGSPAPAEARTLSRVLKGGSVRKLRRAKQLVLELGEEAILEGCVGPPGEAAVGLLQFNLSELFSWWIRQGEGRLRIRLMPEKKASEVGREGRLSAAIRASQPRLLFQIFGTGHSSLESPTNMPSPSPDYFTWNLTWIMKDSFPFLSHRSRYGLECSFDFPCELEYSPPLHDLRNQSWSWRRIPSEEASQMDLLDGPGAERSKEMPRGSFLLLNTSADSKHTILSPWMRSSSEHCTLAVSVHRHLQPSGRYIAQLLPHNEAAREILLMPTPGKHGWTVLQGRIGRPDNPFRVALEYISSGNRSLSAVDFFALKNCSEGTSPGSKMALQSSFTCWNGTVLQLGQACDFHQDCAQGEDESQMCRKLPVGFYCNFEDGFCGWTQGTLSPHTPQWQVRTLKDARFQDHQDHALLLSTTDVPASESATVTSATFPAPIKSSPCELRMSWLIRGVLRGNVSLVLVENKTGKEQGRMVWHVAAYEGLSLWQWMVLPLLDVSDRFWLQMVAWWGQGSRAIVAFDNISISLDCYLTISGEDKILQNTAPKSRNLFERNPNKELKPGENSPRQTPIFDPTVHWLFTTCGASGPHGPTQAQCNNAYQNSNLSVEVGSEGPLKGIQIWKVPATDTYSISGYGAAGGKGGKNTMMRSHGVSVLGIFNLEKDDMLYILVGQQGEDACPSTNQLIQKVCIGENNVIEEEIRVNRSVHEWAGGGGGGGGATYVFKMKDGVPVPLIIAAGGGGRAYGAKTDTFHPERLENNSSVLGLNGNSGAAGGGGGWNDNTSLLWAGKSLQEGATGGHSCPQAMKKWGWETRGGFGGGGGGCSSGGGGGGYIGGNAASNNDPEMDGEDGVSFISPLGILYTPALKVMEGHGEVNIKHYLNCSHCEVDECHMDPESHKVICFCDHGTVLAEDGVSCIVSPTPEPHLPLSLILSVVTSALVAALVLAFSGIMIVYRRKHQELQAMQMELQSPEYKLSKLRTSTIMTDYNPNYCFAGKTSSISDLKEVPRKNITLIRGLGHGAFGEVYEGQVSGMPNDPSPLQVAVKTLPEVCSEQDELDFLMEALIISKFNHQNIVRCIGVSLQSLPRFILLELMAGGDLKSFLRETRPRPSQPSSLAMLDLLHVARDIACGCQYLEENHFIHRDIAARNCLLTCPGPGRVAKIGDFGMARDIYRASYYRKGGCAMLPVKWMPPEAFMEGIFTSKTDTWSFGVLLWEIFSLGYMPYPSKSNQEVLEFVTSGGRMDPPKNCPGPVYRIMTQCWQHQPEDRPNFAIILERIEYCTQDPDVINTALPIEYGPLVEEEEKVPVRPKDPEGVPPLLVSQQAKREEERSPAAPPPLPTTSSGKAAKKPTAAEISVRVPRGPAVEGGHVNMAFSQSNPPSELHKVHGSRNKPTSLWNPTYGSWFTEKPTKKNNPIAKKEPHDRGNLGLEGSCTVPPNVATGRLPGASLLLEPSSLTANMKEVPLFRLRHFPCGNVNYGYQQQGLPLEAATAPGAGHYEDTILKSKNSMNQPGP

[9] = target: Calcium/calmodulin-dependent protein kinase type II subunit alpha (Homo sapiens) (UniProt Q9UQM7); experiment: Residual activity of CAMK2A at 10 uM by microplate scintillation counting
Sequence of Calcium/calmodulin-dependent protein kinase type II subunit alpha (Homo sapiens) (Q9UQM7 whole entry): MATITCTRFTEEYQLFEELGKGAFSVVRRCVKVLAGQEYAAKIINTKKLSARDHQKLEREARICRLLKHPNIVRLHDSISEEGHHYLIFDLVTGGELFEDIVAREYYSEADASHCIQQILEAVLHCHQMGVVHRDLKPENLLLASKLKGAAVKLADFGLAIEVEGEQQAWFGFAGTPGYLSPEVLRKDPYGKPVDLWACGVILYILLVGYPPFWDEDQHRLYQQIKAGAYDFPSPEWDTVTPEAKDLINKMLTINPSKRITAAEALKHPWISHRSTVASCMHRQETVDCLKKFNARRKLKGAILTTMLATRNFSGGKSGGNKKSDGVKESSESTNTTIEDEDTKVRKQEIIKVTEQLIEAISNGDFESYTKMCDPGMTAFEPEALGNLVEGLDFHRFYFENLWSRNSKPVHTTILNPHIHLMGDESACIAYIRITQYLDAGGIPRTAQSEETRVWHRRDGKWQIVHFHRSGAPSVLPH

[10] = target: Dual specificity tyrosine-phosphorylation-regulated kinase 1A (Homo sapiens) (UniProt Q13627); experiment: Residual activity of DYRK1A at 0.1 uM by microplate scintillation counting
[11] = target: Calcium/calmodulin-dependent protein kinase type II subunit beta (Homo sapiens) (UniProt Q13554); experiment: Residual activity of CAMK2B at 1 uM by microplate scintillation counting
Sequence of Calcium/calmodulin-dependent protein kinase type II subunit beta (Homo sapiens) (Q13554 whole entry): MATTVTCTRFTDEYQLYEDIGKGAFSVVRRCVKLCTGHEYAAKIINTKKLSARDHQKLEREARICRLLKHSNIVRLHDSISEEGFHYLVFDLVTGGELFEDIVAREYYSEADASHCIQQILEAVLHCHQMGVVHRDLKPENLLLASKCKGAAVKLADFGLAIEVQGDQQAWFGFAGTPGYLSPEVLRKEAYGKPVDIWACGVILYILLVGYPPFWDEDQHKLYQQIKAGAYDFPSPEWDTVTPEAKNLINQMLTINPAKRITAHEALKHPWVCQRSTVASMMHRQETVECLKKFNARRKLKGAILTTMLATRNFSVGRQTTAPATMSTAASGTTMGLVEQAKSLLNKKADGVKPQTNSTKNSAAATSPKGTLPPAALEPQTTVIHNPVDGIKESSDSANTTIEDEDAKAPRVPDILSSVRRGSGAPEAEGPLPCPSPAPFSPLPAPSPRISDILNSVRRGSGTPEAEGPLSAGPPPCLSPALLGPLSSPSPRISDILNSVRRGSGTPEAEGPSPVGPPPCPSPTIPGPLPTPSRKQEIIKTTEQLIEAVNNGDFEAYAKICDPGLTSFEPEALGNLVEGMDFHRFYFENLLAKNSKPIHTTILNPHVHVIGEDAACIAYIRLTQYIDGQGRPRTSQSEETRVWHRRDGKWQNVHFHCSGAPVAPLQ

[12] = target: Cyclin-dependent kinase 5/CDK5 activator 1 (Homo sapiens) (UniProt Q00535+Q15078); experiment: Residual activity of CDK5/p25NCK at 0.1 uM by microplate scintillation counting; assay type: protein-complex assay
Sequence of Cyclin-dependent kinase 5/CDK5 activator 1 (Homo sapiens) (Q00535 whole entry): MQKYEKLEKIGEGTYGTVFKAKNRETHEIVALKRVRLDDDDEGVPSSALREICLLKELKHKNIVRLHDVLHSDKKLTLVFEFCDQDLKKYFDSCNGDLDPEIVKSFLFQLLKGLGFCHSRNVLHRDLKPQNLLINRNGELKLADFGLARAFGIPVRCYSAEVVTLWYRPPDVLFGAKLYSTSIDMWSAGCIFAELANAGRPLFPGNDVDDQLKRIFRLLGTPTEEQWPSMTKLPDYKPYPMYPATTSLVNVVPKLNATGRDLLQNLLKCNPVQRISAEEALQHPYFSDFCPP
Sequence of Cyclin-dependent kinase 5/CDK5 activator 1 (Homo sapiens) (Q15078 99-307 partner limits assumed): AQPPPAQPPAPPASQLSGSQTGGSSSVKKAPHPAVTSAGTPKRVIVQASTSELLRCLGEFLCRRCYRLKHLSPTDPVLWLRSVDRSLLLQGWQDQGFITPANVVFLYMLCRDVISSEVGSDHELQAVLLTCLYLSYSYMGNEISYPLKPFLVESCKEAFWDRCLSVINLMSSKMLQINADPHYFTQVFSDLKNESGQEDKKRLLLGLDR

[13] = target: Cyclin-dependent kinase 7/ cyclin H (Homo sapiens) (UniProt P51946+P50613); experiment: Residual activity of CDK7/CyclinH/MAT1 at 0.1 uM by microplate scintillation counting; assay type: protein-complex assay
[14] = target: Mitogen-activated protein kinase kinase kinase 14 (Homo sapiens) (UniProt Q99558); experiment: Residual activity of NIK at 0.1 uM by microplate scintillation counting
[15] = target: Serine/threonine-protein kinase PAK 6 (Homo sapiens) (UniProt Q9NQU5); experiment: Residual activity of PAK6 at 0.1 uM by microplate scintillation counting
Sequence of Serine/threonine-protein kinase PAK 6 (Homo sapiens) (Q9NQU5 whole entry, looked up): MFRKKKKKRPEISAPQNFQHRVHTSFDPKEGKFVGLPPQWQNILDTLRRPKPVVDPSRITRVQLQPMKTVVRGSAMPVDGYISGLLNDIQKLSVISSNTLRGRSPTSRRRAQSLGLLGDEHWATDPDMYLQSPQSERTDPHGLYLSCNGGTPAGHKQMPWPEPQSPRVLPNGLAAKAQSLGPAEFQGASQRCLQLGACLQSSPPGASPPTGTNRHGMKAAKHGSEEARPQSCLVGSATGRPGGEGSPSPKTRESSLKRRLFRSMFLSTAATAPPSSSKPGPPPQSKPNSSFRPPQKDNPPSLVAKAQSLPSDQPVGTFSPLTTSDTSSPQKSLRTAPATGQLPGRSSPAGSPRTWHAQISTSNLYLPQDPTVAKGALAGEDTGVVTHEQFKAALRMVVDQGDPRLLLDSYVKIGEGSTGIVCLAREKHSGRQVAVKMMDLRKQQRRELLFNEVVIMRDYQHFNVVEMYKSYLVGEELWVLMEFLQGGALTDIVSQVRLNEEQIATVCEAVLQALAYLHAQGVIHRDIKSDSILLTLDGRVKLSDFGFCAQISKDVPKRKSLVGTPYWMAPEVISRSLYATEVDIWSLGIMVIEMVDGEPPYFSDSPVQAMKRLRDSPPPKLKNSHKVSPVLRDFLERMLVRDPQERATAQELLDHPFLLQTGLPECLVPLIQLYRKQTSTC

[16] = target: Protein kinase C beta type (Homo sapiens) (UniProt P05771); experiment: Residual activity of PKCbeta1 at 0.1 uM by microplate scintillation counting
[17] = target: Proto-oncogene tyrosine-protein kinase receptor Ret (Homo sapiens) (UniProt P07949); experiment: Residual activity of RET at 10 uM by microplate scintillation counting
[18] = test system: RAF proto-oncogene serine/threonine-protein kinase (Homo sapiens), P04049 [Y340D,Y341D]; experiment: Residual activity of RAF1 Y340D/Y341D mutant at 0.1 uM by microplate scintillation counting

| residual activity [1] [%] | residual activity [2] [%] | residual activity [3] [%] | residual activity [4] [%] | residual activity [5] [%] | residual activity [6] [%] | residual activity [7] [%] | residual activity [8] [%] | residual activity [9] [%] | residual activity [10] [%] | residual activity [11] [%] | residual activity [12] [%] | residual activity [13] [%] | residual activity [14] [%] | residual activity [15] [%] | residual activity [16] [%] | residual activity [17] [%] | residual activity [18] [%] | Compound |
| --- | --- | --- | --- | --- | --- | --- | --- | --- | --- | --- | --- | --- | --- | --- | --- | --- | --- | --- |
| 126 | 143 | 86 | 96 | 92 | 124 | 205 | 169 | 11 | 87 | 70 | 90 | 97 | 87 | 99 | 102 | 21 | 95 | COc1cc2c(Oc3ccc(-c4nc5ccccc5s4)cc3)ncnc2cc1OCCCN1CCCC1 |
| 115 | 127 | 73 | 113 | 99 | 47 | 118 | 178 | 21 | 89 | 82 | 87 | 86 | 86 | 98 | 109 | 5 | 100 | COc1cc2c(Oc3ccc(-c4nc5ccccc5s4)cc3F)ncnc2cc1OCCCN1CCN(C)CC1 |
| 123 | 123 | 85 | 113 | 85 | 157 | 287 | 171 | 10 | 94 | 103 | 78 | 104 | 86 | 69 | 100 | 13 | 114 | COc1cc2c(Oc3ccc(-c4nc5ccccc5s4)cc3)ncnc2cc1OCCCN1CCN(C)CC1 |
